Laboratory results published in patent US5556857A, “Disturbance-of-consciousness improving agent” (priority 1991, dated 1996).
Like-named read-outs stand apart in the source and are kept apart here.

Key:
[1] = literature (Brain and Nerve, 39:983-990, 1987); cited from earlier work
sigma receptors = details: cited from earlier work
[2] = literature; cited from earlier work
[3] = tested on: mouse model of coma following head injury; assay: Evaluation of disturbance-of-consciousness improving effect in a mouse model of coma following head injury; type: in vivo; details: Oral, 30 mg/kg
sigma receptor [4] = assay: Binding affinity for the sigma receptor ([3H]-DTG binding test); parameters: species or system Wistar strain male rat; details: [3H]-DTG 3 nM, rat whole brain membrane, 25° C., 60 minutes; ± SED; read-out: Inhibitory activity IC50
Description: Binding affinity for the sigma receptor
A membrane fraction was prepared and a [^3 H]-1,3-di[2-tolyl]guanidine (DTG) binding test was performed, both by the method of Wettstein et al. [Wettstein, J. F., Romman, F. J., Rocher, M. N. and Junien, J. L., Psychopharmacology, 104, 157-163 (1991)]. Thus, a Wistar strain male rat was decapitated and the whole brain was excised and homogenized in 30 volumes of ice-cooled 50 mM Tris hydrochloride buffer (pH 7.4). The homogenate was then centrifuged at 4° C. and 50,000 g for 15 minutes. The sediment obtained was suspended in one volume of the same buffer as mentioned above and, after 45 minutes of incubation at 37° C., the suspension was centrifuged again. The sediment obtained was suspended in one volume of the same buffer and the suspension was stored frozen at -80° C. until use.
The binding experiment was performed as follows. […]
The filter was transferred to a vial and after addition of 5 ml of a liquid scintillation cocktail (Aquasol 2), the vial was allowed to stand in the dark for a predetermined time. The radioactivity was then measured using a scintillation counter. The amount of specific binding was determined by subtracting the binding amount in the presence of 10 μM haloperidol from the total binding amount. The IC50 values were calculated by computer analysis using the nonlinear least squares method.

sigma receptor [5] = assay: Antagonistic experiment with sigma receptor antagonists on the disturbance-of-consciousness improving effect; type: in vivo; details: 10 mg/kg, alone
Description: Antagonistic experiment with sigma receptor antagonists
Whether the improving effect of sigma receptor agonists on impaired consciousness is due to their effect on specific receptors was investigated using test compounds 14 and 15 which are sigma receptor antagonists. […] Similarly, the disturbance-of-consciousness improving effect of test compounds 10 and 12 was inhibited by 30 mg of another sigma receptor antagonist test compound 15.

In the case of `CNC(=O)Oc1ccc2c(c1)[C@]1(C)CCN(C)[C@@H]1N2C` [physostigmine], the “effect on impaired consciousness” value [1] is given as “effective in improving disturbances of consciousness at low non-toxic doses”.
For `O=C(CCCN1CCC(O)(c2ccc(Cl)cc2)CC1)c1ccc(F)cc1` [haloperidol], the “affinity for sigma receptors” value (sigma receptors) is given as “have affinities for these receptors”, the side effects [2] is given as “dystonia” and the “effect on impaired consciousness” value [1] is given as “delays recovery from coma”.
In the case of `CC(=O)OCC[N+](C)(C)C` [acetylcholine], the side effects [2] is given as “serious side effects”.
For `COc1cccc(N2CCN(CCCN3C(=O)CCc4c(Cl)cccc43)CC2)c1` [Example 2], the “RR time (time to recovery of righting reflex)” value [3] was 28 % of control, the “SM time (time to recovery of spontaneous mobility)” value [3] was 28 % of control and the IC50 (sigma receptor [4]) was 130 ± 16 nM.
In the case of `CN[C@@H](C)Cc1ccccc1` [methamphetamine], the side effects [2] is given as “may produce an addictive behavior as well as schizophrenic responses such as hallucinations and delusion” and the “effect on impaired consciousness” value [1] is given as “improves impaired consciousness”.
In the case of `CC[C@@H](CO)NC(=O)[C@@H]1C=C2c3cccc4c3c(cn4C)C[C@H]2N(C)C1` [methysergide], the “effect on impaired consciousness” value [1] is given as “improves impaired consciousness”.
For `c1ccc(C2(N3CCCCC3)CCCCC2)cc1` [phencyclidine], the “affinity for sigma receptors” value (sigma receptors; literature) is given as “having an affinity for sigma receptors” and the side effects [2] is given as “induces schizophrenic responses such as hallucinations and delusion”.
In the case of `COc1cccc2c1CCC(=O)N2CCCN1CCN(c2cccc(Cl)c2)CC1.Cl` [Test compound 1, 1-{3-[4-(3-Chlorophenyl)-1-piperazinyl]propyl}-5-methoxy-3,4-dihydrocarbostyril hydrochloride], the RR time (sigma receptor [5]) is reported as 32 % control, the SM time (sigma receptor [5]) is reported as 38 % control and the “RR time (time to recovery of righting reflex)” value [3] is reported as 20 % of control. The “SM time (time to recovery of spontaneous mobility)” value [3] was 20 % of control and the IC50 (sigma receptor [4]) was 340 ± 110 nM.
